Tested on: HEPG2 cells
Assay: Fluorescence imaging of RDP-1 with HEPG2 cells (PalmB, palmitate)
Type: cell-based, human
Settings: 40 μM PalmB 30 min, 1 μM RDP-1
Protocol: HEPG2 were plated with […] of DMEM (Gibco, Gaithersburg, Md., United States of America; High Glucose, Glutamax, 10% FBS) a four well chambered imaging dish (D35C4-20-1.5-N, Cellvis, Mountain View, Calif., United States of America) which were precoated with 4 μg Poly-D-lysine (30-70 KDa, Alfa Aesar, Haverhill, Mass., United States of America) for 2 h at room temperature or overnight at 4° C. and grown to ca. 80% confluence prior to imaging. 30 min before the addition of the RDP, the cell culture media was removed and cells were washed with 500 μL of serum-free DMEM (Gibco, Gaithersburg, Md., United States of America; High Glucose, Glutamax, no FBS). The media was then replaced with 500 μL of serum-free DMEM containing 100 nM Mitotracker Deep Red (Thermo Fisher Scientific, Waltham, Mass., United States of America) to assist in focusing and processing) and either 0.1% DMSO carrier as a control or Palm B in DMSO and incubated for 30 min at 37° C. and 5% CO2. The media was removed, the cells were washed with 500 μL of Live Cell Imaging Solution (Thermo Fisher Scientific, Waltham, Mass., United States of America), and 500 μL of 1 μM RDP-1 along with the Palm B or DMSO as control in Live Cell Imaging Solution was added to each well. […]

SMILES: CCCCCCCCCC[C@@H]1C(=O)O[C@H]1CCc1ccc(OC)c(OC)c1 [PalmB, palmostatin B]
- decrease in deacylation of RDP-1: about 60%
